Legend:
[1] = system: vomeronasal organ (VNO); assay: Electrovomerogram (EVG) after airborne delivery of substance to the vomeronasal organ; format: in vivo, human; settings: 2 second pulses to VNO, diluted in propylene glycol, number in cell = compound with effect
Description: The stimulation and recording system consists of a “multifunctional miniprobe” described elsewhere (Monti-Bloch, L. and Grosser, B. l. (1991) “Effect of putative pheromones on the electrical activity of the human vomeronasal organ and olfactory epithelium,” J. Steroid Biochem. Molec. Bio. 39:573582). The recording electrode is a 0.3 mm silver ball attached to a small (0.1 mm) silver wire insulated with Teflon© the surface of the electrode is first treated to produce a silver chloride interface, and is then covered with gelatin It is positioned within a small caliber Teflon© catheter (dia=5 mm) such that the tip of the electrode protrudes approximately 2 mm. The Teflon© catheter is 10 cm in length and constitutes the terminal extension for a multichannel delivery system which delivers a continuous air stream carrying discreet pulses of chemosensory stimuli. The air stream first passes into a small chamber and is bubbled through a solution containing either a vomeropherin or an olfactant in a diluent or the diluent alone. A solenoid is used to rapidly redirect the air stream from the chamber to a route which bypasses the chamber. This creates a discreet pulse of stimulant in the air stream. A second, outer Teflon© tube with a diameter of 2 mm surrounds the catheter-electrode assemblage, and its central end is connected to an aspirator that provides continuous suction of 3 ml/s. This concentric arrangement of the outer suction tube allows the emitted chemosensory stimuli to be localized to an area we call a “minifield” (approx. dia=1 mm), and it avoids diffusion of substances either to the area outside the intended stimulation site or into the respiratory system. The entire stimulating and recording assemblage may be positioned either on the neurosensory epithelium within the VNo, or on the surface of the olfactory or respiratory epithelium.
Electro-vomeronasogram (EVG): Recordings are carried out in a quiet room with the subject supine; the multi-functional miniprobe is initially stabilized within the nasal cavity using a nasal retractor placed in the vestibule. Reference and ground electrodes consist of silver discs (8 mm), both of which are positioned on the glabella.
The entrance to the VNO, or vomeronasal pit, is identified by first dilating the nasal aperture and vestibule. A 6×magnifying binocular loupe with halogen illumination is then used to introduce the tip of the Teflon© catheter and recording electrode assemblage into the VNo opening where it is stabilized at an approximate depth of 1 mm within the vomeronasal passage. Optimal placement of the recording electrode is signaled after testing for an adequate depolarization in response to a test substance.
Electrical signals from the recording electrode are fed to a DC amplifier after which they are digitized, computer monitored, and stored. The peak-to-peak amplitude of the signals is measured, and the area under the depolarization wave is integrated, while continuously monitoring the signal both on the computer screen and on a digital oscilloscope. Artifacts produced by respiratory movements are deleted by training the subjects to practice mouth breathing with velopharyngeal closure. Samples of vomeropherins in concentration of 25-800 fmoles are delivered in the continuous air stream for durations from 300 milliseconds to 1 second. Usually, intervals of 3 to 5 minutes separated each series of short test pulses. All components of the lines carrying the test stimuli are made of Teflon©, glass or stainless steel and are carefully cleaned and sterilized before each use. Activity was recorded using standard electroencephalographic (EEG) electrodes placed at positions Cz-Al and Tz-Al of the international […] system; the ground electrode was placed on the mastoid process. Skin temperature (ST) was recorded by a small (1.0 mm) thermistor probe placed in the right ear lobe. Respiratory frequency (RF) was measured with an adjustable strain gauge placed around the lower thorax. […]

[2] = system: vomeronasal organ (VNO); assay: Reflex/autonomic responses (RF, CF, BT, EMG, EEG) to stimulation of the VNO with airborne substance; format: in vivo, human; settings: for BT (body temperature): compound found to have an effect / EEG-T (electroencephalogram from temporal region): compound found to have an effect / RF (respiratory frequency): compound found to have an effect / EEG-V (electroencephalogram from vertex): compound found to have an effect / EMG (electromyogram): compound found to have an effect / CF (cardiac frequency): compound found to have an effect: 2 second pulses to VNO, number in cell = compound with effect; for gender dimorphic effects: males versus females, all recorded parameters
Description: Electrical signals from the recording electrode are fed to a DC amplifier after which they are digitized, computer monitored, and stored. The peak-to-peak amplitude of the signals is measured, and the area under the depolarization wave is integrated, while continuously monitoring the signal both on the computer screen and on a digital oscilloscope. Artifacts produced by respiratory movements are deleted by training the subjects to practice mouth breathing with velopharyngeal closure. Samples of vomeropherins in concentration of 25-800 fmoles are delivered in the continuous air stream for durations from 300 milliseconds to 1 second. Usually, intervals of 3 to 5 minutes separated each series of short test pulses. All components of the lines carrying the test stimuli are made of Teflon©, glass or stainless steel and are carefully cleaned and sterilized before each use. Activity was recorded using standard electroencephalographic (EEG) electrodes placed at positions Cz-Al and Tz-Al of the international […] system; the ground electrode was placed on the mastoid process. Skin temperature (ST) was recorded by a small (1.0 mm) thermistor probe placed in the right ear lobe. Respiratory frequency (RF) was measured with an adjustable strain gauge placed around the lower thorax. All electrical signals were DC amplified, digitized (MP-100, Biopac systems) and continuously monitored utilizing a computer.
Studies were conducted to determine the central nervous system (CNS) reflex responses to vomeropherin stimulation of the VNO. The sexually dimorphic local responses induced by vomeropherins were sometimes mirrored in the autonomic response of male & female subjects.
Fourteen different substances were tested against a control. All substances were diluted in propylene glycol, in 2 ml glass bottles coded with numbers. The solvent (propylene glycol) was used as control.
The airborne substances were delivered to the vomeronasal organ (VNO) in 2 second pulses, using a miniprobe. Several parameters were recorded Electrovomerogram (EVG), respiratory frequency (RF), cardiac frequency (ECG), electrodermal activity (EDA), body temperature (BT), electromyogram (EMG), and electroencephalogram from vertex (EEG-V) and temporal region (EEG-T).
A summary of the results is shown in Table I. Each number indicates the compound found to have an effect in females or in males, on the parameter indicated in the upper row of the table. (For the equivalence of each number to the corresponding compound in males, and in females, see the compound numbers).

Structure (SMILES) | EVG (electrovomerogram): compound found to have an effect ([1]; males (M)) | BT (body temperature): compound found to have an effect ([2]; males (M)) | EVG (electrovomerogram): compound found to have an effect ([1]; females (F)) | EEG-T (electroencephalogram from temporal region): compound found to have an effect ([2]; females (F)) | CF (cardiac frequency): compound found to have an effect ([2]; females (F)) | other results
CCCC=C1CCC2C3CCc4cc(O)ccc4C3=CCC12C (stereo not drawn) [Compound 1, 19,21-BISNORCHOLA-1,3,5(10),9(11),17(20)-PENTAEN-3-OL] | 1 | 1 | – | – | – | –
CCCCC1=CC[C@H]2[C@@H]3CCC4=C(CC[C@H](O)C4)[C@H]3CC[C@]12C [Compound 2, 19,21-BISNORCHOLA-5(10),16-DIEN-3beta-OL] | 2 | 2 | 2 | 2 | – | RF (respiratory frequency): compound found to have an effect ([2]; males (M)): 2; gender dimorphic effects [2]: gender specific
CCCC=C1CC[C@H]2[C@@H]3C=Cc4cc(O)ccc4[C@H]3CC[C@]12C [Compound 3, 19,21-BISNORCHOLA-1,3,5(10),6,17(20)-PENTAEN-3-OL] | 3 | 3 | 3 | – | – | EEG-V (electroencephalogram from vertex): compound found to have an effect ([2]; females (F)): 3
CCCCC1=CC[C@H]2[C@@H]3CCC4=CC(=O)CC[C@]4(O)[C@H]3CC[C@]12C [Compound 4, 10beta-HYDROXY-19,21-BISNORCHOLA-4,16-DIEN-3-ONE] | – | 4 | – | – | – | RF (respiratory frequency): compound found to have an effect ([2]; females (F)): 4; EMG (electromyogram): compound found to have an effect ([2]; males (M)): 4
CCCC=C1CCC2C3CCC4=CC(O)CCC4C3CCC12C (stereo not drawn) [Compound 5, 19,21-BISNORCHOLA-4,17(20)-DIEN-3beta-OL] | – | – | 5 | – | – | RF (respiratory frequency): compound found to have an effect ([2]; females (F)): 5
CC(O)CO (stereo not drawn) [Compound 6, PROPYLENE GLYCOL] | – | – | 6 | 6 | – | –
CCCC=C1CC[C@H]2c3ccc4cc(O)ccc4c3CC[C@]12C [Compound 7, 19,21-BISNORCHOLA-1,3,5,7,9,17(20)-HEXAEN-3-OL] | 7 | 7 | 7 | – | – | EEG-T (electroencephalogram from temporal region): compound found to have an effect ([2]; males (M)): 7
C=C(CCC)[C@H]1CC[C@H]2[C@@H]3CCc4cc(O)ccc4[C@H]3CC[C@]12C [Compound 8, 19-NORCHOLA-1,3,5(10),20-TETRAEN-3-OL] | – | – | – | – | 8 | EMG (electromyogram): compound found to have an effect ([2]; females (F)): 8; EEG-V (electroencephalogram from vertex): compound found to have an effect ([2]; males (M)): 8
CCCC=C1CCC2C3=CCc4cc(O)ccc4C3CCC12C (stereo not drawn) [Compound 9, 19,21-BISNORCHOLA-1,3,5(10),7,17(20)-PENTAEN-3-OL] | – | – | – | – | 9 | –
CCCCC1=CC[C@H]2[C@@H]3CCC4=C(CC[C@@H](O)C4)[C@H]3CC[C@]12C [Compound 10, 19,21-BISNORCHOLA-5(10),16-DIEN-3alpha-OL] | – | – | – | 10 | 10 | EEG-T (electroencephalogram from temporal region): compound found to have an effect ([2]; males (M)): 10; EEG-V (electroencephalogram from vertex): compound found to have an effect ([2]; males (M)): 10; gender dimorphic effects [2]: gender specific
CCCCC1=CC[C@H]2[C@@H]3CCc4cc(OC)ccc4[C@H]3CC[C@]12C [Compound 11, 3-METHOXY-19,21-BISNORCHOLA-1,3,5(10),16-TETRAENE] | – | – | – | 11 | 11 | EEG-V (electroencephalogram from vertex): compound found to have an effect ([2]; females (F)): 11; CF (cardiac frequency): compound found to have an effect ([2]; males (M)): 11; EEG-T (electroencephalogram from temporal region): compound found to have an effect ([2]; males (M)): 11; EEG-V (electroencephalogram from vertex): compound found to have an effect ([2]; males (M)): 11
CCCCC1=CCC2C3CCC4=C(CCC(=O)C4)C3CCC12C (stereo not drawn) [Compound 12, 19,21-bisnorchola-5(10),16-dien-3-one] | – | – | – | – | – | CF (cardiac frequency): compound found to have an effect ([2]; males (M)): 12

Reference: patent US6432938B1, “19-nor-cholane steroids as neurochemical initators of change in human hypothalamic function” (Pherin Corporation, priority 1996, dated 2002)
